According to US20070281935A1, “Use” (PFIZER INC., priority 2004, published 2007):

What was measured:
Format in all cases: in vivo
Holstein cows = assay: Milk yield and milk quality study in pregnant, non-lactating Holstein cows; details: approximately 0.5 mg/kg subcutaneous on day of calving and day five post-calving
Experimental: Machines to assay for milk protein, fat, or lactose content are commercially available (MilkoScan™ 50, MilkoScan™ 4000, MilkoScan™ FT 6000 available from Foss Group). Machines to assay for somatic cell content are also commercially available (Fossomatic™ FC, Fossomatic™ Minor available from Foss Group).
One hundred twenty four pregnant, non-lactating Holstein cows were allocated to two treatment groups (placebo and COMPOUND at approximately 0.5 mg/kg). Animals were allowed to calve, treated by subcutaneous injection on the day of calving and on day five post-calving. Disease events and daily milk production were recorded for the following sixty days. The average daily milk yield in the treated cows was increased from 41.8 to 43.2 kg/day (p=0.052). There was also a significant beneficial effect on milk quality (increased protein and lactose yield, decreased somatic cell count). Results are shown in the FIG. 3 and FIG. 4, where COMPOUND represents Compound Z.

cows [1] = assay: Liver triglyceride levels in transition cows (post-calving liver biopsies); details: all treatment regimens (0.5 mg/kg); Days 5, 10 and 14 postcalving
Experimental: (§1) To determine negative energy balance, serum concentrations of NEFAs or ketone bodies, or levels of triglycerides in liver tissues, are measured. Higher than ‘normal’ levels of NEFA's and/or triglycerides and/or ketone bodies are indicators of negative energy balance. Levels considered ‘higher than normal’ or ‘excessive’ are: • NEFA's >800 μmol/L in serum. • Triglycerides >10% w/w in liver tissue. • Ketone bodies […] in serum. Determination of Changes in Blood Non-Esterified Fatty Acid (NEFA) Concentrations and Liver Triglycerides Levels:
(§2) Compounds were administered once or several times in the transition period at dose levels predicted to be effective by comparing results of in-vitro receptor affinity tests in laboratory species and pharmacokinetic evaluations in cattle. NEFA levels were determined via standard laboratory methods, for example, using the commercial WAKO NEFA kit (Wako Chemical Co., USA, Dallas, Tex., 994-75409), and liver triglyceride content was determined using the method as described in the literature (J. K. Drackley, J. J. Veenhuizen, M. J. Richard and J. W. Young, J Dairy Sci, 1991, 74, 4254)). […]
(§3) As soon as possible post-calving (˜30 minutes) the cow was transferred to the freestall barn for the next scheduled milking (6:00 hrs and 19:00 hrs). […] Pre and post-calving NEFA samples were analyzed using the WAKO NEFA-C test kit (#994-75409). […]

cows [2] = assay: Changes in blood non-esterified fatty acid (NEFA) concentrations in transition cows
Experimental: as §1, §2, §3

[3] = versus placebo, significant beneficial effect

With `CC(C)(Oc1cccc([C@@H]2CCCN(C(=O)OCc3ccc(C(F)(F)F)cc3)C2)c1)C(=O)O` [Compound Z, (3S)-3-[3-(1-Carboxy-1-methyl-ethoxy)-phenyl]-piperidine-1-carboxylic acid 4-trifluoromethyl-benzyl ester] the “average daily milk yield” value (Holstein cows; sixty days recording, placebo 41.8, p=0.052) was 43.2 kg/day, the “milk quality: lactose yield” value (Holstein cows; [3]) was “increased” and the “milk quality: protein yield” value (Holstein cows; [3]) was “increased”. The “milk quality: somatic cell count” value (Holstein cows; [3]) was “decreased”, the “liver triglyceride levels compared to placebo” value (cows [1]) was “significantly lowered” and the “serum NEFA levels as compared to controls” value (cows [2]; all animals treated with Compound Z (T02, T03, T04; 0.5 mg/kg), from Day 1 (after calving) until Day 6 of the study) was “significantly lower”. The “serum NEFA levels compared to controls” value (cows [2]; treatment group T03 (0.5 mg/kg at calving and post partum eod 4 doses), all timepoints) was “significantly lower”.
